Where “and” joins values, the source holds several entries; their conditions need not be identical. Equal entries are not always repeated. Records with an inconclusive call do not appear.
Test system: MX-1 breast xenograft, intrarenal, nude mice, tumor weight
Experiment: NCI In Vivo Anticancer Drug Screen. Data for tumor model Human Mammary Carcinoma MX-1 Xenograft (intrarenal inoculation) in NU/NU BALB/C (nude) mice
Settings: endpoint: mean tumor weight change, higher = larger tumour
Method in brief: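 Mice w/ transplanted tumors, drug vs vehicle; endpoint survival or tumor size; value = T/C.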

[1] = dose: 50.0 mg/kg/injection, schedule: Q01DX010 (sc), vehicle: saline
[2] = dose: 100.0 mg/kg/injection, schedule: Q01DX010 (sc), vehicle: saline
[3] = dose: 200.0 mg/kg/injection, schedule: Q01DX010 (sc), vehicle: saline
[4] = dose: 75.0 mg/kg/injection, schedule: Q04DX003 (sc), vehicle: saline with Tween-80
[5] = dose: 150.0 mg/kg/injection, schedule: Q04DX003 (ip), vehicle: saline with Tween-80
[6] = dose: 300.0 mg/kg/injection, schedule: Q04DX003 (ip), vehicle: saline with Tween-80

Compound: Cc1cc(SCC(=O)c2ccc(Br)cc2)cc(C)[o+]1
- T/C [1]: 91 % of control
- T/C [2]: 124 % of control
- T/C [3]: 71 % of control
- T/C (dose: 400.0 mg/kg/injection, schedule: Q01DX010 (sc), vehicle: saline): 102 % of control

Compound: CCCCCCCC(=O)OCC(=O)[C@]1(O)Cc2c(O)c3c(c(O)c2[C@@H](OC2CC(N)C(O)C(C)O2)C1)C(=O)c1c(OC)cccc1C3=O (stereo not given in full)
- T/C (dose: 2.0 mg/kg/injection, schedule: Q01DX010 (ip), vehicle: suspension in saline): 4 % of control
- T/C (dose: 2.0 mg/kg/injection, schedule: Q01DX010 (sc), vehicle: saline): 121 % of control
- T/C (dose: 2.0 mg/kg/injection, schedule: Q04DX003 (ip), vehicle: saline): 53 % of control
- T/C (dose: 4.0 mg/kg/injection, schedule: Q01DX010 (ip), vehicle: suspension in saline): 5 % of control
- T/C (dose: 4.0 mg/kg/injection, schedule: Q01DX010 (sc), vehicle: saline): 20 % of control
- T/C (dose: 4.0 mg/kg/injection, schedule: Q04DX003 (ip), vehicle: saline): 27 % of control
- T/C (dose: 8.0 mg/kg/injection, schedule: Q01DX010 (sc), vehicle: saline): 2 % of control
- T/C (dose: 8.0 mg/kg/injection, schedule: Q04DX003 (ip), vehicle: saline): 5 % of control

Compound: CCc1nc(N)nc(N)c1-c1ccc(Cl)c([N+](=O)[O-])c1
- T/C (dose: 18.75 mg/kg/injection, schedule: Q04DX003 (sc), vehicle: saline with Tween-80): 99 % of control
- T/C (dose: 37.5 mg/kg/injection, schedule: Q04DX003 (sc), vehicle: saline with Tween-80): 71 % of control
- T/C [4]: 82 % of control

Compound: Oc1c(Cl)cc(Cl)cc1C=NCCSc1ccc(Cl)cc1
- T/C (dose: 150.0 mg/kg/injection, schedule: Q04DX003 (ip), vehicle: Klucel (hydroxypropylcellulose) (HPC)): 99 % of control and 112 % of control
- T/C (dose: 300.0 mg/kg/injection, schedule: Q04DX003 (ip), vehicle: Klucel (hydroxypropylcellulose) (HPC)): 95 % of control
- T/C (dose: 600.0 mg/kg/injection, schedule: Q04DX003 (ip), vehicle: Klucel (hydroxypropylcellulose) (HPC)): 104 % of control and 107 % of control

Compound: O=C(O)c1ccc(C(=O)O)c(C(=O)O)c1.[NH-]C1CCCCC1[NH-].[Pt+2]
- T/C (dose: 3.12 mg/kg/injection, schedule: Q01DX010 (sc), vehicle: sodium bicarbonate): 74 % of control
- T/C (dose: 6.25 mg/kg/injection, schedule: Q01DX010 (sc), vehicle: sodium bicarbonate): 40 % of control
- T/C (dose: 12.5 mg/kg/injection, schedule: Q01DX010 (sc), vehicle: sodium bicarbonate): 6 % of control

Compound: CO[C@H]1Nc2c(ccc(C)c2O)C(=O)N2C=C(/C=C/C(N)=O)C[C@@H]12
- T/C (dose: 0.25 mg/kg/injection, schedule: Q04DX003 (sc), vehicle: saline + alcohol): 41 % of control
- T/C (dose: 0.5 mg/kg/injection, schedule: Q04DX003 (sc), vehicle: saline + alcohol): 12 % of control
- T/C (dose: 1.0 mg/kg/injection, schedule: Q04DX003 (sc), vehicle: saline + alcohol): -58 % of control
- T/C (dose: 2.0 mg/kg/injection, schedule: Q04DX003 (sc), vehicle: saline + alcohol): -98 % of control

Compound: Cc1cc(N(CCOS(C)(=O)=O)CCOS(C)(=O)=O)ccc1C=Nc1ccc(-c2nc(Cc3ccccc3)sc2C)cc1
- T/C (dose: 50.0 mg/kg/injection, schedule: Q01DX010 (sc), vehicle: Klucel (hydroxypropylcellulose) (HPC)): -72 % of control
- T/C (dose: 100.0 mg/kg/injection, schedule: Q01DX010 (sc), vehicle: Klucel (hydroxypropylcellulose) (HPC)): -60 % of control
- T/C (dose: 200.0 mg/kg/injection, schedule: Q01DX010 (sc), vehicle: Klucel (hydroxypropylcellulose) (HPC)): -90 % of control
- T/C (dose: 400.0 mg/kg/injection, schedule: Q01DX010 (sc), vehicle: Klucel (hydroxypropylcellulose) (HPC)): -86 % of control

Compound: O=C(CCCN1CCC(C(O)c2ccc(F)cc2)CC1)c1ccc(F)cc1 (stereo not given)
- T/C (dose: 25.0 mg/kg/injection, schedule: Q04DX003 (ip), vehicle: saline with Tween-80): 90 % of control
- T/C (dose: 50.0 mg/kg/injection, schedule: Q04DX003 (ip), vehicle: saline with Tween-80): 83 % of control

Compound: CCC(=O)[O][Bi]([c]1ccccc1)[c]1ccccc1
- T/C (dose: 12.5 mg/kg/injection, schedule: Q04DX003 (ip), vehicle: Klucel (hydroxypropylcellulose) (HPC)): 100 % of control
- T/C (dose: 25.0 mg/kg/injection, schedule: Q04DX003 (ip), vehicle: Klucel (hydroxypropylcellulose) (HPC)): 77 % of control

Compound: O=C(O)CC(NC(=O)CP(=O)(O)O)C(=O)O (stereo not given)
- T/C [1]: 36 % of control
- T/C [2]: 16 % of control
- T/C [3]: 5 % of control

Compound: COc1ccc(C[C@@H]2NC[C@@H](O)[C@@H]2OC(C)=O)cc1
- T/C [5]: 78 % of control
- T/C [6]: 110 % of control

Compound: COc1cc2c(c3c1c(=O)c1cccc(F)c1n3C)C=CC(C)(C)O2
- T/C (dose: 75.0 mg/kg/injection, schedule: Q04DX003 (ip), vehicle: Klucel (hydroxypropylcellulose) (HPC)): 46 % of control

Compound: CN(C)c1nc(N(C)C)nc(N(C)C)n1
- T/C (dose: 12.5 mg/kg/injection, schedule: Q01DX010 (sc), vehicle: saline with Tween-80): 102 % of control
- T/C (dose: 15.0 mg/kg/injection, schedule: Q01DX010 (sc), vehicle: saline with Tween-80): 84 % of control
- T/C (dose: 25.0 mg/kg/injection, schedule: Q01DX010 (ip), vehicle: Klucel (hydroxypropylcellulose) (HPC)): 36 % of control
- T/C (dose: 25.0 mg/kg/injection, schedule: Q01DX010 (sc), vehicle: saline with Tween-80): 56 % of control
- T/C (dose: 30.0 mg/kg/injection, schedule: Q01DX010 (sc), vehicle: saline with Tween-80): 3 % of control
- T/C (dose: 50.0 mg/kg/injection, schedule: Q01DX010 (sc), vehicle: saline with Tween-80): 7 % of control
- T/C (dose: 60.0 mg/kg/injection, schedule: Q01DX010 (sc), vehicle: saline with Tween-80): -30 % of control
- T/C [4]: 37 % of control
- T/C (dose: 100.0 mg/kg/injection, schedule: Q01DX010 (ip), vehicle: Klucel (hydroxypropylcellulose) (HPC)): -100 % of control
- T/C (dose: 100.0 mg/kg/injection, schedule: Q01DX010 (sc), vehicle: saline with Tween-80): 9 % of control
- T/C (dose: 120.0 mg/kg/injection, schedule: Q01DX010 (sc), vehicle: saline with Tween-80): -90 % of control
- T/C (dose: 150.0 mg/kg/injection, schedule: Q04DX003 (sc), vehicle: saline with Tween-80): 16 % of control
- T/C (dose: 200.0 mg/kg/injection, schedule: Q01DX010 (ip), vehicle: Klucel (hydroxypropylcellulose) (HPC)): -100 % of control
- T/C (dose: 200.0 mg/kg/injection, schedule: Q01DX010 (sc), vehicle: saline with Tween-80): -5 % of control
- T/C (dose: 300.0 mg/kg/injection, schedule: Q04DX003 (sc), vehicle: saline with Tween-80): -60 % of control

Compound: C[C@@](O)(/C=C/[C@H]1CC=CC(=O)O1)[C@@H](C[C@@H](O)\C=C/C=C\C=C\CO)OP(=O)(O)O
- T/C (dose: 1.5 mg/kg/injection, schedule: Q01DX009 (ip), vehicle: other): 113 % of control
- T/C (dose: 6.0 mg/kg/injection, schedule: Q01DX009 (ip), vehicle: other): 57 % of control
- T/C (dose: 12.0 mg/kg/injection, schedule: Q01DX009 (ip), vehicle: other): 61 % of control
- T/C (dose: 37.5 mg/kg/injection, schedule: Q04DX003 (sc), vehicle: other): 29 % of control

Compound: CC(C)(C)c1ccc(C(=O)N2CCOC23CCCCC3)cc1
- T/C [5]: 69 % of control and 87 % of control
- T/C [6]: 96 % of control and 112 % of control
- T/C (dose: 600.0 mg/kg/injection, schedule: Q04DX003 (ip), vehicle: saline with Tween-80): 80 % of control and 88 % of control
- T/C (dose: 1200.0 mg/kg/injection, schedule: Q04DX003 (ip), vehicle: saline with Tween-80): 95 % of control and 106 % of control

Compound: O=C(O)CC(=O)O.[NH-]CC[NH-].[Pt+2]
- T/C (dose: 25.0 mg/kg/injection, schedule: Q01DX010 (sc), vehicle: dextrose): -6 % of control
- T/C (dose: 50.0 mg/kg/injection, schedule: Q01DX010 (sc), vehicle: dextrose): -85 % of control

Compound: O=C1CN(CCN2CC(=O)N(CN3CCOCC3)C(=O)C2)CC(=O)N1CN1CCOCC1
- T/C (dose: 150.0 mg/kg/injection, schedule: Q04DX003 (ip), vehicle: water): 56 % of control
- T/C (dose: 300.0 mg/kg/injection, schedule: Q04DX003 (ip), vehicle: water): 58 % of control

Compound: c1ccc2c(NCCCCCCCCNc3c4ccccc4nc4ccccc34)c3ccccc3nc2c1
- T/C (dose: 20.0 mg/kg/injection, schedule: Q01DX010 (sc), vehicle: Klucel (hydroxypropylcellulose) (HPC)): 106 % of control
- T/C (dose: 40.0 mg/kg/injection, schedule: Q01DX010 (sc), vehicle: Klucel (hydroxypropylcellulose) (HPC)): 107 % of control
- T/C (dose: 80.0 mg/kg/injection, schedule: Q01DX010 (sc), vehicle: Klucel (hydroxypropylcellulose) (HPC)): 100 % of control
- T/C (dose: 160.0 mg/kg/injection, schedule: Q01DX010 (sc), vehicle: Klucel (hydroxypropylcellulose) (HPC)): 99 % of control
